Measurements published in ChEMBL document CHEMBL1148879, “1,4-Dihydroindeno[1,2-c]pyrazoles as potent checkpoint kinase 1 inhibitors: extended exploration on phenyl ring substitutions and preliminary ADME/PK studies” (Bioorg Med Chem Lett, 2007).

Tests used:
[1] = molecular target: T1, Serine/threonine-protein kinase Chk1 (Homo sapiens, UniProt O14757); assay: Inhibition of recombinant CHK-mediated Cdc25C phosphorylation after 30 mins
T1 sequence (O14757 whole entry): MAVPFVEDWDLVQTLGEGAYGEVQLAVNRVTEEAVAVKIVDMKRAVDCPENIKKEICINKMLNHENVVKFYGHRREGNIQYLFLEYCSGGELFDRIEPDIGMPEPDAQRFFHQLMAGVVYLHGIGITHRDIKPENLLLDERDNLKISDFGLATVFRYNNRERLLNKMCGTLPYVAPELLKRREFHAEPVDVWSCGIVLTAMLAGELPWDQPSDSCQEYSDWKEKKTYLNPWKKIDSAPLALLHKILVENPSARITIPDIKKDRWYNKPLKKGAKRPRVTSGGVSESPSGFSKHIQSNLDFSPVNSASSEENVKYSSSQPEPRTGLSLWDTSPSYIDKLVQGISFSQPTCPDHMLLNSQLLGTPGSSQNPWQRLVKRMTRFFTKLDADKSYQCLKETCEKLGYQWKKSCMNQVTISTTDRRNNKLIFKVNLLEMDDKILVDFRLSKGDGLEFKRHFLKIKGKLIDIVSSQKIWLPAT

HeLa = assay: cells; settings: Homo sapiens
Description: Antiproliferative activity against human HeLa cells by MTS assay

[2] = Antiproliferative activity against human H1299 cells by FACS assay; format: functional, cell-based; settings: NCI-H1299
[3] = Half life in mouse at 3 mg/kg, iv; format: ADME, organism-based; set-up: dose 3 mg/kg, route intravenous; settings: in vivo
[4] = (§1) AUC in mouse at 3 mg/kg, iv; format: ADME, organism-based, Plasma; set-up: dose 3 mg/kg, route intravenous; settings: plasma
[5] = AUC in mouse at 10 mg/kg, ip; format: ADME, organism-based; set-up: dose 10 mg/kg, route intraperitoneal; settings: plasma
[6] = Cmax in mouse at 10 mg/kg, ip; format: ADME, organism-based; set-up: dose 10 mg/kg, route intraperitoneal; settings: in vivo
[7] = Cmax in mouse at 10 mg/kg, po; format: ADME, organism-based; set-up: dose 10 mg/kg, route oral; settings: in vivo
[8] = Plasma clearance in mouse at 3 mg/kg, iv; format: ADME, organism-based; set-up: dose 3 mg/kg, route intravenous
[9] = Volume of distribution in mouse at 3 mg/kg, iv; format: ADME, organism-based; set-up: dose 3 mg/kg, route intravenous; settings: in vivo, read-out: Vdss
[10] = Oral bioavailability in mouse at 10 mg/kg; format: ADME, organism-based; settings: in vivo
[11] = Metabolic stability in rat liver microsome assessed as […] at 1 uM; format: ADME; settings: liver microsomes, read-out: Activity (converted)
Mus musculus = assay: as §1; format: ADME, organism-based, Plasma; set-up: dose 3 mg/kg, route intravenous; settings: in vivo
[12] = Apparent permeability across human Caco-2 cells at 1 uM; format: ADME, cell-based
[13] = Aqueous solubility at neutral pH; format: physicochemical; settings: buffer
[14] = Metabolic stability in rat liver microsomes assessed as half life at 1 uM; format: ADME, Microsome
[15] = AUC in mouse at 10 mg/kg, po; format: ADME, organism-based; set-up: dose 10 mg/kg, route oral; settings: plasma
[16] = Metabolic stability in rat liver microsomes assessed as compound remaining at 1 uM after 30 mins; format: ADME, Microsome; settings: read-out: Stability

Row | SMILES | IC50 [1] | EC50 (HeLa) | EC50 [2] | also measured
1 | COc1cc2c(cc1CNCCO)Cc1c(-c3ccc(-c4ccc(O)cc4)cc3)n[nH]c1-2 | 0.00043 µM |  |  | 
2 | Oc1ccc(-c2ccc(-c3[nH]nc4c3Cc3cccc(O)c3-4)cc2)cc1 | 0.671 µM |  |  | 
3 | O=C(CNCCO)Nc1ccc2c(c1)Cc1c(-c3ccc(-c4ccc(O)cc4)cc3)n[nH]c1-2 | 0.00074 µM | > 59 µM | > 10 µM | 
4 | O=C(NCCO)c1ccc2c(c1)-c1[nH]nc(-c3ccc(-c4ccc(O)cc4)cc3)c1C2 | 0.005 µM |  |  | 
5 | COc1cc2c(cc1CN[C@H]1CC[C@H](O)CC1)Cc1c(-c3ccc(-c4ccc(O)cc4)cc3)n[nH]c1-2 | 0.00056 µM | 0.62 µM | 3.1 µM | 
6 | Oc1ccc(-c2ccc(-c3n[nH]c4c3Cc3ccc(CNCCN5CCCC5)cc3-4)cc2)cc1 | 0.0071 µM | 2.8 µM |  | 
7 | OCCNCc1ccc2c(c1)-c1[nH]nc(-c3ccc(-c4ccc(O)cc4)cc3)c1C2 | 0.012 µM |  |  | 
8 | CC(=O)Nc1cccc2c1Cc1c(-c3ccc(-c4ccc(O)cc4)cc3)n[nH]c1-2 | 0.0055 µM |  |  | 
9 | CC(C)(C)CNCc1cccc2c1Cc1c(-c3ccc(-c4ccc(O)cc4)cc3)n[nH]c1-2 | 0.209 µM |  |  | 
10 | COc1cc2c(cc1CN1CCN(C)CC1)Cc1c(-c3ccc(-c4ccc(O)cc4)cc3)n[nH]c1-2 | 0.00051 µM |  |  | 
11 | COc1cc2c(cc1C(=O)N1CCC(O)CC1)Cc1c(-c3ccc(-c4ccc(O)cc4)cc3)n[nH]c1-2 | 0.00024 µM | 1.4 µM | 5.2 µM | 
12 | COc1cc2c(cc1CN1CCN(C)CC1)Cc1c(-c3ccc(-c4ccc(O)c(C#N)c4)cc3)n[nH]c1-2 | > 10 µM |  |  | 
13 | OCc1cccc2c1Cc1c(-c3ccc(-c4ccc(O)cc4)cc3)n[nH]c1-2 | 0.0078 µM | > 59 µM |  | 
14 | COc1cc2c(cc1C(=O)NCc1ccccn1)Cc1c(-c3ccc(-c4ccc(O)c(C#N)c4)cc3)n[nH]c1-2 | 9.09 µM |  |  | 
15 | COc1cc2c(cc1C(=O)N[C@H]1CC[C@H](O)CC1)Cc1c(-c3ccc(-c4ccc(O)cc4)cc3)n[nH]c1-2 | 0.00024 µM | 38 µM | > 10 µM | half-life [3]: 23.4 min; AUC [4]: 570 ng·h/mL; AUC [5]: 4200 ng·h/mL; Cmax [6]: 1500 nM; Cmax [7]: < 100 nM; clearance [8]: 183 mL/min/kg; Vd [9]: 6 L/kg; bioavailability [10]: 0%
16 | COc1cc2c(cc1C(=O)NCCN1CCCC1)Cc1c(-c3ccc(-c4ccc(O)cc4)cc3)n[nH]c1-2 | 0.00083 µM |  |  | 
17 | O=C(NCc1ccccn1)c1ccc2c(c1)Cc1c(-c3ccc(-c4ccc(O)cc4)cc3)n[nH]c1-2 |  | 23 µM | > 10 µM | k el at 1 µM [11]: 0.00049 s⁻¹; half-life [3]: 36 min; AUC (Mus musculus): 1200 ng·h/mL; Papp at 1 µM [12]: 13.3 ×10⁻⁶ cm/s; AUC [5]: 4400 ng·h/mL; solubility [13]: < 0.03 µg/mL; half-life at 1 µM [14]: 25 min; Cmax [6]: 2000 nM; Cmax [7]: 250 nM; AUC [15]: 160 ng·h/mL; remaining at 0.5 h, 1 µM [16]: 40%; Vd [9]: 4.7 L/kg; bioavailability [10]: 4%
18 | O=C(N[C@H]1CC[C@H](O)CC1)c1cccc2c1Cc1c(-c3ccc(-c4ccc(O)cc4)cc3)n[nH]c1-2 | > 10 µM |  |  | 
19 | CN1CCN(Cc2ccc3c(c2)Cc2c(-c4ccc(-c5ccc(O)cc5)cc4)n[nH]c2-3)CC1 | 0.024 µM | 1.7 µM | > 10 µM | half-life [3]: 30 min; AUC (Mus musculus): 1500 ng·h/mL; AUC [5]: 2700 ng·h/mL; solubility [13]: < 0.03 µg/mL; Cmax [6]: 1100 nM; Cmax [7]: 90 nM; AUC [15]: 450 ng·h/mL; Vd [9]: 3.4 L/kg; bioavailability [10]: 9%

Row | SMILES | IC50 [1] | EC50 (HeLa) | EC50 [2] | also measured
20 | COc1cc2c(cc1CN1CCN(C)CC1)Cc1c(-c3ccc(-c4ccc(O)c(F)c4)cc3)n[nH]c1-2 | 0.028 µM |  |  | half-life [3]: 36 min; AUC (Mus musculus): 690 ng·h/mL; AUC [5]: 1600 ng·h/mL; Cmax [6]: 1300 nM; Cmax [7]: 80 nM; AUC [15]: 130 ng·h/mL; Vd [9]: 9.2 L/kg; bioavailability [10]: 6%
21 | Oc1ccc(-c2ccc(-c3n[nH]c4c3Cc3ccccc3-4)cc2)cc1 | 1.37 µM |  |  | 
22 | CCCCNCC(=O)Nc1ccc2c(c1)Cc1c(-c3ccc(-c4ccc(O)cc4)cc3)n[nH]c1-2 | 0.0021 µM | 1.7 µM | > 10 µM | 
23 | O=C(CNCc1ccncc1)Nc1ccc2c(c1)Cc1c(-c3ccc(-c4ccc(O)cc4)cc3)n[nH]c1-2 | 0.0064 µM |  |  | 
24 | CN(C)CCNCc1ccc2c(c1)-c1[nH]nc(-c3ccc(-c4ccc(O)cc4)cc3)c1C2 | 0.0052 µM | > 59 µM | > 10 µM | 
25 | COc1cc2c(cc1C(=O)N1CCOCC1)Cc1c(-c3ccc(-c4ccc(O)cc4)cc3)n[nH]c1-2 | 0.00055 µM |  |  | 
26 | O=C(c1ccc2c(c1)-c1[nH]nc(-c3ccc(-c4ccc(O)cc4)cc3)c1C2)N1CCOCC1 | 0.091 µM |  |  | 
27 | CC(C)(C)NCc1ccc2c(c1)-c1[nH]nc(-c3ccc(-c4ccc(O)cc4)cc3)c1C2 | 0.034 µM |  |  | 
28 | OCc1ccc2c(c1)Cc1c(-c3ccc(-c4ccc(O)cc4)cc3)n[nH]c1-2 | 0.0077 µM | > 59 µM |  | 
29 | OCc1ccc2c(c1)-c1[nH]nc(-c3ccc(-c4ccc(O)cc4)cc3)c1C2 | 0.0044 µM | > 59 µM | > 10 µM | 
30 | O=C(CN[C@H]1CC[C@H](O)CC1)Nc1ccc2c(c1)Cc1c(-c3ccc(-c4ccc(O)cc4)cc3)n[nH]c1-2 | 0.0012 µM | > 59 µM | > 10 µM | 
31 | COc1cc2c(cc1C(=O)N[C@H]1CC[C@H](O)CC1)C(C)(C)c1c(-c3ccc(-c4ccc(O)cc4)cc3)n[nH]c1-2 | 0.018 µM | 8.6 µM | > 10 µM | 
32 | O=C(NCc1ccccc1)c1cccc2c1Cc1c(-c3ccc(-c4ccc(O)cc4)cc3)n[nH]c1-2 | > 10 µM |  |  | 
33 | COc1cc2c(cc1CNCCN1CCCC1)Cc1c(-c3ccc(-c4ccc(O)cc4)cc3)n[nH]c1-2 | 0.00021 µM | 0.91 µM | 5.1 µM | 
34 | CNC(=O)c1ccc2c(c1)-c1[nH]nc(-c3ccc(-c4ccc(O)cc4)cc3)c1C2 | 0.0023 µM |  |  | 
35 | COc1cc2c(cc1C(=O)N1CCN(C)CC1)Cc1c(-c3ccc(-c4ccc(O)cc4)cc3)n[nH]c1-2 | 0.0023 µM |  |  | 
36 | COc1cc2c(cc1CN1CCC(O)CC1)Cc1c(-c3ccc(-c4ccc(O)cc4)cc3)n[nH]c1-2 | 0.0011 µM |  |  | 
37 | Oc1ccc(-c2ccc(-c3n[nH]c4c3Cc3cc(O)ccc3-4)cc2)cc1 | 0.0044 µM |  |  | 
38 | COc1cc2c(cc1C(=O)NCc1ccccn1)Cc1c(-c3ccc(-c4ccc(O)c(F)c4)cc3)n[nH]c1-2 | 0.027 µM |  |  | half-life [3]: 27.6 min; AUC [4]: 1700 ng·h/mL; AUC [5]: 3800 ng·h/mL; Cmax [6]: 2800 nM; Cmax [7]: < 50 nM; clearance [8]: 60 mL/min/kg; Vd [9]: 2.4 L/kg; bioavailability [10]: 0%
